Results reported in ChEMBL document CHEMBL1268886, “Evaluation of amide replacements in CCR5 antagonists as a means to increase intrinsic permeability. Part 2: SAR optimization and pharmacokinetic profile of a homologous azacyle series” (Bioorg Med Chem Lett, 2010).

Key:
[1] = test system: Human immunodeficiency virus; test: Antiviral activity against HIV; assay type: functional, organism-based
[2] = biological target: C-C chemokine receptor type 5 (Homo sapiens, UniProt P51681); test: Inhibition of RANTES
Chain of C-C chemokine receptor type 5 (P51681 whole entry): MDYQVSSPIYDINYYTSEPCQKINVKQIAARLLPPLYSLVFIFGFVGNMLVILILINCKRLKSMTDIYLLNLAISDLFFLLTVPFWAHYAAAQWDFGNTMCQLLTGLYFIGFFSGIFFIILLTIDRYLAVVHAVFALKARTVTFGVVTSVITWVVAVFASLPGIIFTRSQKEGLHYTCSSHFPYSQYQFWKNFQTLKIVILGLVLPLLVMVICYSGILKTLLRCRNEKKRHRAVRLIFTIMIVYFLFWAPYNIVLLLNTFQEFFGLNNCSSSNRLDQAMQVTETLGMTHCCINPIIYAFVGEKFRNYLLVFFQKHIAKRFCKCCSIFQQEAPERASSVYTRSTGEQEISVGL

[3] = (§1) Apparent permeability of the compound from apical to basolateral side in human Caco-2 cell membrane after 21 days; conditions: Caco-2, Papp
Caco-2 = test: as §1; conditions: caco-2
[4] = Metabolic stability in rat liver microsomes assessed as intrinsic clearance; assay type: ADME, Microsome
[5] = Clearance in dog at 5 mg/kg, po and 1 mg/kg, iv; assay type: ADME, organism-based, Canis lupus familiaris; conditions: in vivo
[6] = Cmax in rat at 10 mg/kg, po and 1 mg/kg, iv; assay type: ADME, organism-based; conditions: in vivo
[7] = Oral bioavailability in rat at 10 mg/kg, po and 1 mg/kg, iv; assay type: ADME, organism-based; conditions: in vivo
[8] = Cmax in dog at 5 mg/kg, po and 1 mg/kg, iv; assay type: ADME, organism-based, Canis lupus familiaris; conditions: in vivo
[9] = Metabolic stability in human liver microsomes assessed as intrinsic clearance; assay type: ADME, Microsome
[10] = Oral bioavailability in dog at 5 mg/kg, po and 1 mg/kg, iv; assay type: ADME, organism-based, Canis lupus familiaris; conditions: in vivo
[11] = Metabolic stability in dog liver microsomes assessed as intrinsic clearance; assay type: ADME, Canis lupus familiaris, Microsome
[12] = Half life in dog at 1 mg/kg, iv; assay type: ADME, organism-based, Canis lupus familiaris; design: dose 1 mg/kg, route intravenous; conditions: in vivo
[13] = biological target: Voltage-gated inwardly rectifying potassium channel KCNH2 (Homo sapiens, UniProt Q12809); test: Inhibition of human ERG
Chain of Voltage-gated inwardly rectifying potassium channel KCNH2 (Q12809 whole entry): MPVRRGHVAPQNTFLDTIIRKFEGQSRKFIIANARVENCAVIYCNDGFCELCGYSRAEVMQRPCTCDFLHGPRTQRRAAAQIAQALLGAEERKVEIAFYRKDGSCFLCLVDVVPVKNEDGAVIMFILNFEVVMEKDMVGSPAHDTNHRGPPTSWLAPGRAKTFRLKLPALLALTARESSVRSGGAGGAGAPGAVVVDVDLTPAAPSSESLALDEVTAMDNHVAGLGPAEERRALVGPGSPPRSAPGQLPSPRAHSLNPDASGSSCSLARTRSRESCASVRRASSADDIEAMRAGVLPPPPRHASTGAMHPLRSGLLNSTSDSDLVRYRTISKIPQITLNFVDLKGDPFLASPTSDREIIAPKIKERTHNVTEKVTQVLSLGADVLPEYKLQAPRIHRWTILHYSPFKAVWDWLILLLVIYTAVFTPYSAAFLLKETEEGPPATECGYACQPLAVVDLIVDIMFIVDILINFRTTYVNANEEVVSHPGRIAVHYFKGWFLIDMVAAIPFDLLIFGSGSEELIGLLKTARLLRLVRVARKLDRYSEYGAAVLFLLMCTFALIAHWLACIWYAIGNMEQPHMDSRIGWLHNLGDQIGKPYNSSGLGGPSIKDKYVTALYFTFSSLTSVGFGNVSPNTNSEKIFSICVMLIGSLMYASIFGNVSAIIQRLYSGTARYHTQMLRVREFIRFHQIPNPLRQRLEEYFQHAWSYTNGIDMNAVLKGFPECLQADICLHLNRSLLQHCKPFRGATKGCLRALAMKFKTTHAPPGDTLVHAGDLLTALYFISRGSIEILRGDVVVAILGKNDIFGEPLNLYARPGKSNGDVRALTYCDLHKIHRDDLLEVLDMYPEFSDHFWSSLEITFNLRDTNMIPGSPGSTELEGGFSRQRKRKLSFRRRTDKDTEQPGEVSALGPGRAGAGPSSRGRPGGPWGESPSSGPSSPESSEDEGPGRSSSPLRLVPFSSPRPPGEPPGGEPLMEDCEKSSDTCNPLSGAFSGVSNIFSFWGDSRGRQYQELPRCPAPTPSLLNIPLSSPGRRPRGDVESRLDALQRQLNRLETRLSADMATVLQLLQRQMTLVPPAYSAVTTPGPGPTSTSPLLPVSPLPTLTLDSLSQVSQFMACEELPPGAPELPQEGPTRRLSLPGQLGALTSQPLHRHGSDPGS

Rattus norvegicus = test: Clearance in rat at 10 mg/kg, po and 1 mg/kg, iv; assay type: ADME, organism-based; conditions: in vivo
[14] = Half life in rat at 1 mg/kg, iv; assay type: ADME, organism-based; design: dose 1 mg/kg, route intravenous; conditions: in vivo

| Structure (SMILES) | IC50 ([1]; Human immunodeficiency virus 1) [nM] | IC50 [2] [nM] | other results |
| --- | --- | --- | --- |
| Cc1ncnc(C)c1C(=O)N1C[C@H]2CN(CCC(c3ccccc3)C3CCN(S(=O)(=O)CC(F)(F)F)CC3)C[C@H]2C1 (stereo not given in full) | 207 | 48 | – |
| Cc1ncnc(C)c1C(=O)N1C[C@H]2CN(CCC(c3ccccc3)C3CCN(S(=O)(=O)C4CCCC4)CC3)C[C@H]2C1 (stereo not given in full) | 59 | 23 | – |
| Cc1ncnc(C)c1C(=O)N1C[C@H]2CN(CCC(c3cccc(F)c3)C3CCN(S(=O)(=O)c4ccccc4)CC3)C[C@H]2C1 (stereo not given in full) | 6 | 38 | – |
| Cc1ncnc(C)c1C(=O)N1C[C@H]2CN(CCC(c3ccccc3)C3CN(C(=O)C4CCCC4)C3)C[C@H]2C1 (stereo not given in full) | – | 207 | – |
| Cc1ncnc(C)c1C(=O)N1C[C@H]2CN(CCC(c3ccccc3)C3CN(C(=O)CC(C)C)C3)C[C@H]2C1 (stereo not given in full) | – | > 500 | – |
| Cc1ncnc(C)c1C(=O)N1C[C@H]2CN(CCC(c3ccccc3)C3CN(S(=O)(=O)C(C)C)C3)C[C@H]2C1 (stereo not given in full) | 100 | 23 | – |
| Cc1ncnc(C)c1C(=O)N1C[C@H]2CN(CCC(c3ccccc3)C3CN(S(=O)(=O)C4CC4)C3)C[C@H]2C1 (stereo not given in full) | 103 | 40 | – |
| Cc1ncnc(C)c1C(=O)N1C[C@H]2CN(CCC(c3cccc(F)c3)C3CN(S(=O)(=O)C4CC4)C3)C[C@H]2C1 (stereo not given in full) | 156 | 39 | – |
| Cc1ncnc(C)c1C(=O)N1C[C@H]2CN(CCC(c3ccccc3)C3CCN(C(=O)NC(C)C)CC3)C[C@H]2C1 (stereo not given in full) | – | > 500 | – |
| Cc1ncnc(C)c1C(=O)N1C[C@H]2CN(CCC(c3cc(F)cc(F)c3)C3CN(S(=O)(=O)C4CC4)C3)C[C@H]2C1 (stereo not given in full) | 90 | 35 | – |
| Cc1ncnc(C)c1C(=O)N1C[C@H]2CN(CCC(c3ccccc3)C3CCN(CC(F)(F)F)CC3)C[C@H]2C1 (stereo not given in full) | 64 | 17 | – |
| Cc1ncnc(C)c1C(=O)N1C[C@H]2CN(CCC(c3ccccc3)C3CN(S(C)(=O)=O)C3)C[C@H]2C1 (stereo not given in full) | > 625 | 52 | – |
| Cc1ncnc(C)c1C(=O)N1C[C@H]2CN(CCC(c3ccccc3)C3CCN(CC(F)F)CC3)C[C@H]2C1 (stereo not given in full) | 55 | 27 | – |
| Cc1ncnc(C)c1C(=O)N1C[C@H]2CN(CCC(c3ccccc3)C3CN(S(=O)(=O)C4CCCC4)C3)C[C@H]2C1 (stereo not given in full) | 31 | 22 | Papp A→B [3]: 1.4 ×10⁻⁶ cm/s |
| Cc1ncnc(C)c1C(=O)N1C[C@H]2CN(CCC(c3cccc(F)c3)C3CCN(CC(F)F)CC3)C[C@H]2C1 (stereo not given in full) | 14 | 35 | – |
| Cc1ncnc(C)c1C(=O)N1C[C@H]2CN(CCC(c3ccccc3)C3CCN(S(=O)(=O)C4CC4)CC3)C[C@H]2C1 (stereo not given in full) | 71 | 27 | – |

| Structure (SMILES) | IC50 ([1]; Human immunodeficiency virus 1) [nM] | IC50 [2] [nM] | other results |
| --- | --- | --- | --- |
| Cc1ncnc(C)c1C(=O)N1C[C@H]2CN(CCC(c3cc(F)cc(F)c3)C3CCN(CC(F)F)CC3)C[C@H]2C1 (stereo not given in full) | 20 | 25 | – |
| CCS(=O)(=O)N1CCC(C(CCN2C[C@@H]3CN(C(=O)c4c(C)ncnc4C)C[C@@H]3C2)c2ccccc2)CC1 (stereo not given in full) | 39 | 25 | – |
| COC(=O)N1CCC(C(CCN2C[C@@H]3CN(C(=O)c4c(C)ncnc4C)C[C@@H]3C2)c2ccccc2)CC1 (stereo not given in full) | – | 102 | – |
| Cc1ncnc(C)c1C(=O)N1C[C@H]2CN(CCC(c3ccccc3)C3CCN(S(=O)(=O)C(C)C)CC3)C[C@H]2C1 (stereo not given in full) | 48 | 47 | – |
| CCC(=O)N1CCC(C(CCN2C[C@@H]3CN(C(=O)c4c(C)ncnc4C)C[C@@H]3C2)c2ccccc2)CC1 (stereo not given in full) | – | 32 | – |
| Cc1cc(=O)oc(C)c1C(=O)N1C[C@H]2CN(CCC(c3ccccc3)C3CCN(S(C)(=O)=O)CC3)C[C@H]2C1 (stereo not given in full) | 37 | 27 | – |
| Cc1ncnc(C)c1C(=O)N1C[C@H]2CN(CCC(c3ccccc3)C3CCN(C(=O)C(C)C)CC3)C[C@H]2C1 (stereo not given in full) | – | 72 | – |
| Cc1cc(C#N)nc(C)c1C(=O)N1C[C@H]2CN(CCC(c3ccccc3)C3CCN(S(C)(=O)=O)CC3)C[C@H]2C1 (stereo not given in full) | 4 | – | – |
| Cc1ncnc(C)c1C(=O)N1C[C@H]2CN(CCC(c3ccccc3)C3CCN(C(=O)CC(C)C)CC3)C[C@H]2C1 (stereo not given in full) | – | 68 | – |
| Cc1ncnc(C)c1C(=O)N1C[C@H]2CN(CCC(c3ccccc3)C3CN(CC(F)(F)F)C3)C[C@H]2C1 (stereo not given in full) | – | > 500 | – |
| Cc1ncnc(C)c1C(=O)N1C[C@H]2CN(CCC(c3ccccc3)C3CCN(S(C)(=O)=O)CC3)C[C@H]2C1 (stereo in doubt; 34) | – | 34 | IC50 [1]: 43 nM; Papp A→B [3]: 0.87 ×10⁻⁶ cm/s |
| Cc1ncnc(C)c1C(=O)N1C[C@H]2CN(CCC(c3cccc(F)c3)C3CCN(S(C)(=O)=O)CC3)C[C@H]2C1 (stereo in doubt; 35) | 16 | 44 | – |
| Cc1ncnc(C)c1C(=O)N1C[C@H]2CN(CCC(c3ccccc3)C3CCN(S(C)(=O)=O)CC3)C[C@H]2C1 (stereo in doubt; 41) | – | 25 | IC50 [1]: 42 nM; Papp (Caco-2): 0.5 ×10⁻⁶ cm/s |
| Cc1ncnc(C)c1C(=O)N1C[C@H]2CN(CCC(c3ccccc3)C3CCN(S(C)(=O)=O)CC3)C[C@H]2C1 (stereo in doubt; 42) | – | > 500 | IC50 [1]: > 5000 nM |
| Cc1ncnc(C)c1C(=O)N1C[C@H]2CN(CCC(c3cccc(F)c3)C3CCN(S(C)(=O)=O)CC3)C[C@H]2C1 (stereo in doubt; 43) | – | 32 | microsomal CLint [4]: 40 µL/min/mg; clearance [5]: 31 mL/min/kg; Cmax [6]: 110 ng/mL; bioavailability [7]: 6.6%; Cmax [8]: 1300 ng/mL; microsomal CLint [9]: 60 µL/min/mg; bioavailability [10]: 96%; IC50 [1]: 17 nM; clearance [11]: 18 µL/min/mg; half-life [12]: 4 h; IC20 [13]: 15400 nM; Papp A→B [3]: 0.5 ×10⁻⁶ cm/s; clearance (Rattus norvegicus): 40 mL/min/kg; half-life [14]: 0.37 h |
| Cc1ncnc(C)c1C(=O)N1C[C@H]2CN(CCC(c3cccc(F)c3)C3CCN(S(C)(=O)=O)CC3)C[C@H]2C1 (stereo in doubt; 44) | – | > 500 | – |
